pIC50: −log10 of the molar value. Counter-ions that a name gives are not always drawn.
Target: T1, hTRPA1 (Homo sapiens, UniProt O75762)
T1 construct: host or cells: CHO-K1 Tet-On HOMSA TRPA1 Clone 20 (Chinese Hamster Ovary cells, inducible expression)
Assay: ChanTest hTRPA1-CHO calcium flux dose response assay (FLIPR, cinnamaldehyde agonist)
Type: cell-based
Conditions: CHO-K1 Tet-On hTRPA1 cells, 100 uM cinnamaldehyde agonist, 30 min compound preincubation
Experimental: IC50 Determination of Exemplified Compounds Dose Response Assay: ChanTest hTRPA1-CHO Stably Transfected Cell Line
CHO-K1 Tet-On HOMSA TRPA1 Clone 20
0.40 mg/ml Zeocin • The cell line doubling rate was ˜15 hours. […] Experiments were run at 24 hours post induction.
Plating Conditions CHOK1/TRPA1 Cells: • Harvested cells with 0.025% trypsin/EDTA. • Resuspended cells in growth media without selection antibiotics. • Measured cell density and diluted to 2.4×10^5 cells/ml in media containing 1 ug/ml Doxycycline Plate 25 ul/well into 384 well black/clear tissue culture-treated plates. • Incubated overnight at 37° C.
• Replacement Buffer: Hank's Balanced Salt Solution, 20 mM HEPES along with 0.005% BSA and 2× Probenecid • Dye Loading Buffer: Cal-3 NW Calcium dye was prepared by dissolving the contents of one vial with 500 ml Hank's Balanced Salt Solution containing 20 mM HEPES.
Control Compounds for CHOK1/TRPA1 Cells: • AP-18, stock 10 mM, prepare 3.5× compound dilution in a Compound Buffer (HBSS/20 mM HEPES/0.005% BSA)−final concentration 10 uM.
Preparation of Cinnamaldehyde (Agonist Addition): • FW=132.16 • Specific gravity=1.046 gm/cc • 1.32 gm/1.046 gm/cc=1.26 ml of stock • Add 1.74 ml DMSO=3.3 M stock • Working solution 4.5× (final 100 uM in Compound Buffer: HBSS/20 mM HEPES/0.005% BSA)
Compounds dilutions were prepared from 5 or 10 mM stock (100% DMSO): • Adjustments of volumes and concentrations were made at time of titration to reflect desired final assay concentrations. • Compounds were tested at either 20 μM three folds dilution 11 steps out or 30 μM two folds dilution 11 steps out. • 3 μl of diluted compound were transferred into Weidmann 384-well plate in duplicates side-by-side. • Compound plates were resuspended with 100 ul of HBSS/20 mM HEPES/0.005% BSA buffer (Compound Buffer): • column 1A-H: buffer/DMSO (bk) • column 2A-H: AP-18 (control antagonist for CHOK1 TRPA1 cells) • column 1I-P: ATP (control for CHOK1 teton cells) • column 2I-P: 2APB (control antagonist for CHOK1/TRPM8 cells).
Growth media was removed from the cell plates (20 ul) and 20 ul of the Replacement Buffer was added followed by addition of 25 ul of diluted dye. All three steps were performed using a Plate Washer BioTek 407. The plates were then incubated for 30′ at RT.
After incubation, both the cell and compound plates were brought to the FLIPR and 20 ul of the diluted compounds/antagonist/bk were transferred to the cell plates by the FLIPR. Plates were then incubated for 30′ at room temperature. After 30′ incubation, plates were returned to the FLIPR and 20 ul of 4.5× Cinnamaldehyde was added to the cell plates. During the compound addition as well as agonist addition, fluorescence readings were taken simultaneously from all 384 wells of the cell plate every 1.5 seconds. Five readings were taken to establish a stable baseline, then 20 ul of sample was rapidly (30 ul/sec) and simultaneously added to each well of the cell plate. The fluorescence was continuously monitored before, during and after sample/agonist addition for a total elapsed time of 100 seconds (compound addition) and 120 seconds (agonist addition). Responses (increase in peak fluorescence) in each well following agonist addition was determined. The initial fluorescence reading from each well, prior to ligand stimulation, was used a zero baseline value for the data from that well.

T1 sequence (O75762 whole entry): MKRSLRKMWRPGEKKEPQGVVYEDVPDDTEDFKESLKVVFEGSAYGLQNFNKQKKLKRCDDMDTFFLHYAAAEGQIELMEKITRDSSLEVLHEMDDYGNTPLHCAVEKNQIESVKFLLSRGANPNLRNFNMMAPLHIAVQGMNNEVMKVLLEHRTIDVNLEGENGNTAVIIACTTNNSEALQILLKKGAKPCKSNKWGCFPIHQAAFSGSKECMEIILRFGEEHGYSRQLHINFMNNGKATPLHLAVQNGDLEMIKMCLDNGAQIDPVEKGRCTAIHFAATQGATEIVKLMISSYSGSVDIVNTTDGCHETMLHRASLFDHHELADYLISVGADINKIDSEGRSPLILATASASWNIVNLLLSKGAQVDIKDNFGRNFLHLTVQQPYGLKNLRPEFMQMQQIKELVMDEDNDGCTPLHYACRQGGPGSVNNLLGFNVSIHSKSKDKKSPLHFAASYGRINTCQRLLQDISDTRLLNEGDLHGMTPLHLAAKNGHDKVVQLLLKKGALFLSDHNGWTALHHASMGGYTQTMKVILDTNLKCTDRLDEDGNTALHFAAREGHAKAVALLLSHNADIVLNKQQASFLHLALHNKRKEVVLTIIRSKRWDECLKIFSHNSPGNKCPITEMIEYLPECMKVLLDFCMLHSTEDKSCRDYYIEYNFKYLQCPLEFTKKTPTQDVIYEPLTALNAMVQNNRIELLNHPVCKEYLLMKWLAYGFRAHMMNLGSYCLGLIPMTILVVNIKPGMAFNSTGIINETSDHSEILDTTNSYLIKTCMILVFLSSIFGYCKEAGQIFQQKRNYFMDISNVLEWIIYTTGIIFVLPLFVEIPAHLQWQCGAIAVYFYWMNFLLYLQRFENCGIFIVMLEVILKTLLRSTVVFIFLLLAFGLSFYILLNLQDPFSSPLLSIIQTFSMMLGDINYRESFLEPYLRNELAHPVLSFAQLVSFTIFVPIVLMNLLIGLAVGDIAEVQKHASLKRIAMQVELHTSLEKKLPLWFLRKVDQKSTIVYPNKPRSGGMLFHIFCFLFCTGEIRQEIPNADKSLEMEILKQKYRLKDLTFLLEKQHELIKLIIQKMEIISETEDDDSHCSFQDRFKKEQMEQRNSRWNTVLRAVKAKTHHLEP

SMILES	pIC50
FC(F)(F)c1cccc(C2CCCN(CC(Cc3nc(-c4ccc(Cl)cc4)no3)C(F)(F)F)C2)c1 (mixture of isomers) [Example 14, 1-{2-[3-(4-Chlorophenyl)-[1,2,4]oxadiazol-5-ylmethyl]-3,3,3-trifluoro-propyl}-3-(3-trifluoromethyl-phenyl)-piperidine hydrochloride]	5.58
FC(F)(F)c1cccc(C2CCCN(CC(Cc3nc4cc(Cl)ccc4[nH]3)C(F)(F)F)C2)c1 (stereo not drawn) [Example 1, 5-Chloro-2-{3,3,3-trifluoro-2-[3-(3-trifluoromethyl-phenyl)-piperidin-1-ylmethyl]-propyl}-1H-benzoimidazole hydrochloride]	5.17
FC(F)(F)c1cccc(C2CCCN(CC(Cc3ncc(-c4ccc(Cl)cc4)[nH]3)C(F)(F)F)C2)c1 (stereo not drawn) [Example 2, 1-{2-[5-(4-Chlorophenyl)-1H-imidazol-2-ylmethyl]-3,3,3-trifluoro-propyl}-3-(3-trifluoromethyl-phenyl)piperidine hydrochloride]	5.43
FC(F)(F)c1cccc(C2CCCN(CC(Cc3nnc(-c4ccc(Cl)cc4)o3)C(F)(F)F)C2)c1 (stereo not drawn) [Example 3, 1-{2-[5-(4-Chloro-phenyl)-[1,3,4]oxadiazol-2-ylmethyl]-3,3,3-trifluoro-propyl}-3-(3-trifluoromethyl-phenyl)-piperidine hydrochloride]	6.15
FC(F)(F)c1cccc(C2CCCN(CC(Cc3nc4ccc(Cl)cc4o3)C(F)(F)F)C2)c1 (stereo not drawn) [Example 4, 6-Chloro-2-{3,3,3-trifluoro-2-[3-(3-trifluoromethyl-phenyl)-piperidin-1-ylmethyl]-propyl}-benzooxazole hydrochloride]	4.91
FC(F)(F)c1cccc(C2CCCN(CC(Cc3ncc(-c4ccccc4)[nH]3)C(F)(F)F)C2)c1 (stereo not drawn) [Example 5, 3-(3-Trifluoromethyl-phenyl)-1-[3,3,3-trifluoro-2-(5-phenyl-1H-imidazol-2-ylmethyl)-propyl]-piperidine hydrochloride]	4.95
FC(F)(F)c1cccc(C2CCCN(CC(Cc3ncc(-c4cccc(Cl)c4)[nH]3)C(F)(F)F)C2)c1 (stereo not drawn) [Example 6, 1-{2-[5-(3-Chlorophenyl)-1H-imidazol-2-ylmethyl]-3,3,3-trifluoro-propyl}-3-(3-trifluoromethyl-phenyl)piperidine hydrochloride]	5.65
Fc1ccc(-c2cnc(CC(CN3CCCC(c4cccc(C(F)(F)F)c4)C3)C(F)(F)F)[nH]2)cc1 (stereo not drawn) [Example 7, 1-{3,3,3-Trifluoro-2-[5-(4-fluoro-phenyl)-1H-imidazol-2-ylmethyl]-propyl}-3-(3-trifluoromethyl-phenyl)-piperidine hydrochloride]	5.22
Fc1ccc(-c2nnc(CC(CN3CCCC(c4cccc(C(F)(F)F)c4)C3)C(F)(F)F)o2)cc1 (stereo not drawn) [Example 8, 1-{3,3,3-Trifluoro-2-[5-(4-fluorophenyl)-[1,3,4]oxadiazol-2-ylmethyl]-propyl}-3-(3-trifluoromethyl-phenyl)-piperidine hydrochloride]	6.94
FC(F)(F)c1cccc(C2CCCN(CC(Cc3nnc(-c4cccc(Cl)c4)o3)C(F)(F)F)C2)c1 (stereo not drawn) [Example 9, 1-{2-[5-(3-Chloro-phenyl)-[1,3,4]oxadiazol-2-ylmethyl]-3,3,3-trifluoro-propyl}-3-(3-trifluoromethyl-phenyl)-piperidine hydrochloride]	5.04
Cc1ccc(-c2nnc(CC(CN3CCCC(c4cccc(C(F)(F)F)c4)C3)C(F)(F)F)o2)cn1 (stereo not drawn) [Example 10, 2-Methyl-5-(5-{3,3,3-trifluoro-2-[3-(3-trifluoromethyl-phenyl)-piperidin-1-ylmethyl]-propyl}-[1,3,4]oxadiazol-2-yl)-pyridine]	5.62
FC(F)(F)c1cccc(C2CCCN(CC(Cc3nnc(-c4ccc(Cl)cn4)o3)C(F)(F)F)C2)c1 (stereo not drawn) [Example 11, 5-Chloro-2-(5-{3,3,3-trifluoro-2-[3-(3-trifluoromethyl-phenyl)-piperidin-1-ylmethyl]-propyl}-[1,3,4]oxadiazol-2-yl)-pyridine hydrochloride]	4.52
Fc1ccc(-c2nnc(CC(CN3CCOC(c4cccc(C(F)(F)F)c4)C3)C(F)(F)F)o2)cc1 (stereo not drawn) [Example 12, 4-{3,3,3-Trifluoro-2-[5-(4-fluoro-phenyl)-[1,3,4]oxadiazol-2-ylmethyl]-propyl}-2-(3-trifluoromethyl-phenyl)-morpholine hydrochloride]	6.95
FC(F)(F)c1cccc(C2CCCN(CC(Cc3ncc(-c4ccc(Cl)cc4)o3)C(F)(F)F)C2)c1 (stereo not drawn) [Example 13, 1-{2-[5-(4-Chloro-phenyl)-oxazol-2-ylmethyl]-3,3,3-trifluoro-propyl}-3-(3-trifluoromethyl-phenyl)-piperidine hydrochloride]	5.14
Fc1ccc(-c2nc(CC(CN3CCCC(c4cccc(C(F)(F)F)c4)C3)C(F)(F)F)no2)cc1 (stereo not drawn) [Example 15, 1-{3,3,3-Trifluoro-2-[5-(4-fluoro-phenyl)-[1,2,4]oxadiazol-3-ylmethyl]-propyl}-3-(3-trifluoromethyl-phenyl)-piperidine hydrochloride]	6.50
FC(F)(F)c1cccc(C2CN(CC(Cc3nnc(-c4ccc(Cl)cc4)o3)C(F)(F)F)CCO2)c1 (stereo not drawn) [Example 16, 4-{2-[5-(4-Chlorophenyl)-[1,3,4]oxadiazol-2-ylmethyl]-3,3,3-trifluoropropyl}-2-(3-trifluoromethyl-phenyl)-morpholine hydrochloride]	6.64
Fc1ccc(-c2nnc(CC(CN3CCOC(c4ccc(C(F)(F)F)cc4)C3)C(F)(F)F)o2)cc1 (stereo not drawn) [Example 17, 4-{3,3,3-Trifluoro-2-[5-(4-fluoro-phenyl)-[1,3,4]oxadiazol-2-ylmethyl]-propyl}-2-(4-trifluoromethyl-phenyl)-morpholine hydrochloride]	7.21
FC(F)(F)c1ccc(C2CN(CC(Cc3nnc(-c4ccc(Cl)cc4)o3)C(F)(F)F)CCO2)cc1 (stereo not drawn) [Example 18, 4-{2-[5-(4-Chloro-phenyl)-[1,3,4]oxadiazol-2-ylmethyl]-3,3,3-trifluoro-propyl}-2-(4-trifluoromethyl-phenyl)-morpholinehydrochloride]	6.57

— patent US9388172B2, “Substituted carbamate compounds” (Hoffmann-La Roche Inc., priority 2012, dated 2016)
